The source of these data is PubChem BioAssay (NCI).

SMILES strings stand for the structures.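 Five compound concentrations were applied to cells in 96-well plates for 48 hours; endpoints were derived by simple linear interpolation of the resulting dose-response curve. GI50 = concentration required for 50% inhibition of growth. At the TGI there is no net growth.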 Where only a bound is given, the exact number is not on record here.

As a reminder, the GI50 is the concentration that inhibits growth by half. A word on the TGI: it is the concentration giving total growth inhibition. A high value points to lower sensitivity of the cells.

Among the test systems are MDA-MB-435; HT29 colon; PC-3 prostate; SR leukemia; SK-OV-3 ovarian; OVCAR-8 ovarian; SN12C renal; SF-295 CNS; UACC-62 melanoma; K-562 leukemia.
Experiment in all cases: DTP human tumour cell line panel, 48 h

In the case of `O=S(=O)(NCCCNc1cc(-c2cn(-c3ccccc3)nc2-c2cccc(O)c2)ccn1)c1ccc(Cl)cc1`, the GI50 was 1.64 µM in the experiment on MDA-MB-435; 0.471 µM in the experiment on HT29 colon; 1.74 µM in the experiment on PC-3 prostate; 1.58 µM in the experiment on SR leukemia; 2.35 µM in the experiment on SK-OV-3 ovarian; 2.11 µM in the experiment with OVCAR-8 ovarian. The GI50 was 2.23 µM in the experiment on SN12C renal, 1.42 µM in the experiment on SF-295 CNS, 1.67 µM in the experiment on UACC-62 melanoma and 0.437 µM with K-562 leukemia. Besides, the total growth inhibition concentration (TGI) was 3.2 µM with MDA-MB-435; 1.7 µM with HT29 colon; 6.1 µM with PC-3 prostate; 5.16 µM in the experiment on SR leukemia; 7.35 µM in the experiment on SK-OV-3 ovarian; 6.06 µM with OVCAR-8 ovarian. Further, the TGI turned out to be 6.09 µM in the experiment on SN12C renal, 3.29 µM in the experiment on SF-295 CNS, 3.67 µM with UACC-62 melanoma and 2.5 µM with K-562 leukemia.
As to `CCN1CCN(C(=O)[C@]23CCC(C)(C)C[C@@H]2C2=CC[C@@H]4[C@@]5(C)C/C(=C/c6cccnc6)C(=O)C(C)(C)[C@@H]5CC[C@@]4(C)[C@]2(C)CC3)CC1`, the GI50 was 1.48 µM in the experiment on MDA-MB-435; 1.71 µM in the experiment on HT29 colon; 1 µM with PC-3 prostate; 0.706 µM in the experiment with SR leukemia; 4.19 µM in the experiment with SK-OV-3 ovarian; 2.14 µM in the experiment with OVCAR-8 ovarian. In addition, the GI50 in the experiment on SN12C renal was 1.22 µM; in the experiment with SF-295 CNS, 1.66 µM; with UACC-62 melanoma, 1.28 µM; in the experiment on K-562 leukemia, 1.43 µM. For the same compound, the TGI in the experiment on MDA-MB-435 was found to be 3.11 µM; in the experiment on HT29 colon, 4.67 µM; with PC-3 prostate, 2.79 µM; in the experiment with SR leukemia, 5.1 µM; in the experiment on SK-OV-3 ovarian, 16.8 µM; in the experiment on OVCAR-8 ovarian it was 5.54 µM. Further, the TGI in the experiment on SN12C renal was 2.54 µM; with SF-295 CNS, 3.15 µM; in the experiment on UACC-62 melanoma, 2.83 µM; with K-562 leukemia, above 100 µM.
`COc1ccc(/C=C/C(=O)c2ccc(Nc3ccnc4cc(Cl)ccc34)cc2)cc1`: the GI50 in the experiment on MDA-MB-435 was 65.6 µM; with HT29 colon, 4.2 µM; with PC-3 prostate it was above 100 µM; in the experiment on SR leukemia it was 2.24 µM; in the experiment with SK-OV-3 ovarian, above 100 µM; in the experiment on OVCAR-8 ovarian it was above 100 µM. In addition, the GI50 with SN12C renal is above 100 µM; in the experiment with SF-295 CNS it was above 100 µM; in the experiment on UACC-62 melanoma it was 62.6 µM; in the experiment with K-562 leukemia, 4.15 µM. Moreover, the TGI was above 100 µM with MDA-MB-435; above 100 µM in the experiment with HT29 colon; above 100 µM with PC-3 prostate; 10.1 µM with SR leukemia; above 100 µM in the experiment with SK-OV-3 ovarian; above 100 µM with OVCAR-8 ovarian. Further, the TGI was above 100 µM in the experiment on SN12C renal, above 100 µM in the experiment on SF-295 CNS, above 100 µM in the experiment with UACC-62 melanoma and above 54 µM with K-562 leukemia.
As to `O=C(O)/C=C\C(=O)Nc1ccc2c(c1)C(=O)c1cc(F)ccc1-2`, the TGI with MDA-MB-435, in the experiment on HT29 colon, in the experiment on PC-3 prostate, in the experiment on SR leukemia, in the experiment on SK-OV-3 ovarian and in the experiment with OVCAR-8 ovarian was above 100 µM each time. Also, the TGI in the experiment with SN12C renal, in the experiment with SF-295 CNS, in the experiment on UACC-62 melanoma and in the experiment on K-562 leukemia was above 100 µM in each case.
Turning to `C[C@@]1(N2C(=O)OC[C@@H]2c2ccccc2)C(=O)N([C@H](CC(=O)N2CCC(N3CCCCC3)CC2)C(=O)NCc2cccc(C(F)(F)F)c2)[C@@H]1/C=C/c1ccccc1`, the GI50 in the experiment with MDA-MB-435 was 1.74 µM; in the experiment on HT29 colon it was 2.31 µM; in the experiment with PC-3 prostate, 4.15 µM; with SR leukemia, 1.94 µM; with SK-OV-3 ovarian, 2.09 µM; with OVCAR-8 ovarian it was 2.77 µM. Further, the GI50 in the experiment with SN12C renal was 2 µM; in the experiment on SF-295 CNS it was 1.73 µM; in the experiment on UACC-62 melanoma it was 1.85 µM; with K-562 leukemia it was 2.07 µM. Further, the TGI with MDA-MB-435 stood at 3.26 µM; in the experiment with HT29 colon it was 5.7 µM; in the experiment with PC-3 prostate, 15.7 µM; with SR leukemia, 4.7 µM; in the experiment with SK-OV-3 ovarian it was 4.83 µM; with OVCAR-8 ovarian, 7.24 µM. Besides, the TGI stood at 4.31 µM in the experiment on SN12C renal, 3.42 µM with SF-295 CNS, 3.78 µM in the experiment on UACC-62 melanoma and 4.82 µM in the experiment on K-562 leukemia.
